Read-outs that look alike come from different tables or passages of the source.
Assays:
[1] = target: Nav1.6 (Homo sapiens, UniProt Q9UQD0); experiment: PatchXpress automated patch clamp, hyperpolarized-state protocol; type: cell-based; design: expressed in transfected cells; details: for IC50: HEK 293 cells, hyperpolarized protocol
Description: (§1) Sodium currents were recorded from recombinant Human Embryonic Kidney 293 cell lines stably overexpressing the respective sodium channel type (NaV1.2, 1.5, 1.4, 1.6, 1.7). Recording solutions were comprised of the following (in mM): Internal solution: 30 CsCl, 5 HEPES, 10 EGTA, 120 CsF, 5 NaF, 2 MgCl2, pH = 7.3 with CsOH; External solution 1: 40 NaCl, 120 NMDG, 1 KCl, 0.5 MgCl2, 5 HEPES, 2.7 CaCl2, pH to 7.3 with NaOH, used for NaV1.5 recordings; External solution 2: 150 NaCl, 5 KCl, 2 CaCl2, 1 MgCl2, 10 HEPES, 12 Dextrose, pH 7.3 with NaOH, used for NaV1.7, 1.6, 1.4, and 1.2 recordings.
(§2) Whole-cell currents were recorded from cells stably expressing NaV channels using the PatchXpress 7000A automated patch clamp platform (Molecular Devices, LLC; Sunnyvale, CA). A portable air-conditioning unit was installed on the PatchXpress instruments to maintain the temperature of the headstage at 21°C. Cells were voltage clamped at −60 mV for cell detection and sealing. At the start of each recording, a voltage curve and an inactivation curve was run for each cell to determine the voltage at which 50% of the channels reside in the inactivated state (V0.5 inact). The voltage curve was used to determine if the cell was adequately clamped; cells with currents larger than 10nA or with space clamp issues were not used further.
(§3) NaV1.7, NaV1.6, NaV1.4: Compound potency was measured in a hyperpolarized-state protocol where the holding potential for each cell was set to V0.5inact – 20 mV. A pulse train consisting of 7 consecutive double pulses, 8 second hypepolarizing prepulse to −120 mV followed by a test pulse to −10 mV was applied at a frequency of 0.1 Hz. First, vehicle (0.3% DMSO) was added to establish a baseline measurement. Once baseline was established, test compounds were added. Cells were exposed to compound for 5 minutes at 20 mV negative to V0.5inact then exposed to the same hyperpolarized voltage protocol. (no pulsing during compound incubation). A washout was performed to measure recovery of the sodium currents from inhibition.
(§4) Recordings were included for analysis when current amplitude reached steady-state in vehicle, compound inhibition was concentration-dependent and currents recovered during wash-out periods. Raw data from PatchXpress experiments were retrieved from the database and analyzed using the DataXpress 2 software (Molecular Devices).
(§5) At least 3 concentrations (3–9 replicates per concentration) were tested and at least one concentration had to cause 20–80% current inhibition.

[2] = Plasma exposure in phrenic nerve activity assay; type: in vivo; details: rat; for concentration at 30 min / concentration at 15 min: CD, plasma, intravenous
Excerpt: (§6) For in vivo CVR and phrenic nerve activity studies, all raw signals were amplified via general purposed biological amplifier (filter settings DC – 3-5 KhZ) then digitized, calibrated and collected at a minimum of 500 Hz (1000 Hz for ECG and 2000 Hz for cardiac electrograms, and 10 KHz for phrenic nerve activity) using Notocord-HEM data acquisition and analysis software. The raw signal was filtered following acquisition with a bandpass filter set to 200–800 Hz). Vehicle (100% dimethylformamdide, DMF) or compound formulated in the vehicle was administered as a 30-minute IV infusion at 0.0167 μL/g body weight/min. Doses were selected to achieve unbound plasma concentrations in range of measured Nav1.6 IC50 values when infused at 0.0167uL/g body weight/min based on measured rat clearance, plasma protein binding and Nav1.6 IC50. Exposure in rats was determined in separate pharmacokinetics experiments where compounds were administered via IV dosing.

[3] = target: Pgp (Homo sapiens, UniProt P08183); experiment: Permeability BA/AB ratio (Pgp transport); type: in vitro ADME; details: not told
[4] = tested on: phrenic nerve; experiment: Rat phrenic nerve firing assay; details: rat in vivo, measured at 30 minutes
Description: To determine direct effects on phrenic nerve activity, male CD rats were anesthetized and instrumented as described above for the CV/R assay. In addition, an incision was made in the ventral neck area and the right phrenic nerve identified anatomically and isolated via blunt dissection. The phrenic nerve was placed over a high impedance bipolar hook electrode and the nerve covered with mineral oil to prevent desiccation. Animals were mechanically ventilated via a tracheotomy (~10 mL/kg, 40–70 breaths/min, titrated individually to stabilize phrenic activity) following neuromuscular block (pancuronium 0.5–1 mg/kg, iv) and bilateral vagotomy to better define test agent effects on phrenic nerve activity. Anesthesia was verified repeatedly following pancuronium administration by testing the BP/HR response to noxious stimuli. Spontaneous electrical activity was continuously recorded and then later rectified and averaged to calculate frequency, width, peak height of bursts, and magnitude. Magnitude of the activity was calculated by taking the absolute value of the raw signal and then averaging that signal over 50 ms increments. The resulting average signal was then converted to magnitude by subtracting the […] for each phrenic burst complex. The resulting magnitude values were then averaged over 1 minute increments to result in the graphs shown. Figure S1 in the Supplemental Information illustrates this analytical procedure.
as §6

[5] = target: T1, Human NaV1.7 (Homo sapiens, UniProt Q15858); experiment: PatchXpress automated patch clamp, hyperpolarized-state protocol; type: cell-based; details: HEK 293 cells
T1 construct: expressed in transfected cells
Description: as §1, §2, §3, §4, §5

[6] = target: T2, Human NaV1.4 (Homo sapiens, UniProt P35499); experiment: as above; type: cell-based; details: HEK 293 cells
T2 construct: expressed in transfected cells
Description: as §1, §2, §3, §4, §5

[7] = target: T3, Rat NaV1.6 (Rattus norvegicus, UniProt O88420); experiment: as above; type: cell-based; details: for IC50: HEK cells, hyperpolarized protocol
T3 construct: expressed in transfected cells; host or cells: HEK cells
Description: as §1, §2, §3, §4, §5

[8] = target: T4, Human NaV1.5 (Homo sapiens, UniProt Q14524); experiment: PatchXpress automated patch clamp, depolarized-state protocol; type: cell-based; details: HEK 293 cells
T4 construct: expressed in transfected cells
Description: as §1, §2
NaV1.5: Compound potency was measured in a depolarized-state protocol where the holding potential for each cell was set to V0.5inact – 20 mV. The pulse protocol consisted of an 8 sec prepulse to V0.5inact + 7 mV, followed by a 2 ms hyperpolarization to −120 mV and a 10 ms test pulse to −10 mV. First, vehicle (0.3% DMSO) was added to establish a baseline measurement. Once baseline was established, a test compound was added. Cells were exposed to compound for 5 minutes at V0.5inact – 20 mV. Compound washout was performed to measure the recovery of the sodium currents from inhibition.
as §4, §5

[9] = 30 mg/kg, read-out: Total [plasma]
[10] = 30 mg/kg, read-out: Unbound [plasma]
[11] = 60 mg/kg, read-out: Total [plasma]
[12] = 60 mg/kg, read-out: Unbound [plasma]

T1 sequence (Q15858 whole entry): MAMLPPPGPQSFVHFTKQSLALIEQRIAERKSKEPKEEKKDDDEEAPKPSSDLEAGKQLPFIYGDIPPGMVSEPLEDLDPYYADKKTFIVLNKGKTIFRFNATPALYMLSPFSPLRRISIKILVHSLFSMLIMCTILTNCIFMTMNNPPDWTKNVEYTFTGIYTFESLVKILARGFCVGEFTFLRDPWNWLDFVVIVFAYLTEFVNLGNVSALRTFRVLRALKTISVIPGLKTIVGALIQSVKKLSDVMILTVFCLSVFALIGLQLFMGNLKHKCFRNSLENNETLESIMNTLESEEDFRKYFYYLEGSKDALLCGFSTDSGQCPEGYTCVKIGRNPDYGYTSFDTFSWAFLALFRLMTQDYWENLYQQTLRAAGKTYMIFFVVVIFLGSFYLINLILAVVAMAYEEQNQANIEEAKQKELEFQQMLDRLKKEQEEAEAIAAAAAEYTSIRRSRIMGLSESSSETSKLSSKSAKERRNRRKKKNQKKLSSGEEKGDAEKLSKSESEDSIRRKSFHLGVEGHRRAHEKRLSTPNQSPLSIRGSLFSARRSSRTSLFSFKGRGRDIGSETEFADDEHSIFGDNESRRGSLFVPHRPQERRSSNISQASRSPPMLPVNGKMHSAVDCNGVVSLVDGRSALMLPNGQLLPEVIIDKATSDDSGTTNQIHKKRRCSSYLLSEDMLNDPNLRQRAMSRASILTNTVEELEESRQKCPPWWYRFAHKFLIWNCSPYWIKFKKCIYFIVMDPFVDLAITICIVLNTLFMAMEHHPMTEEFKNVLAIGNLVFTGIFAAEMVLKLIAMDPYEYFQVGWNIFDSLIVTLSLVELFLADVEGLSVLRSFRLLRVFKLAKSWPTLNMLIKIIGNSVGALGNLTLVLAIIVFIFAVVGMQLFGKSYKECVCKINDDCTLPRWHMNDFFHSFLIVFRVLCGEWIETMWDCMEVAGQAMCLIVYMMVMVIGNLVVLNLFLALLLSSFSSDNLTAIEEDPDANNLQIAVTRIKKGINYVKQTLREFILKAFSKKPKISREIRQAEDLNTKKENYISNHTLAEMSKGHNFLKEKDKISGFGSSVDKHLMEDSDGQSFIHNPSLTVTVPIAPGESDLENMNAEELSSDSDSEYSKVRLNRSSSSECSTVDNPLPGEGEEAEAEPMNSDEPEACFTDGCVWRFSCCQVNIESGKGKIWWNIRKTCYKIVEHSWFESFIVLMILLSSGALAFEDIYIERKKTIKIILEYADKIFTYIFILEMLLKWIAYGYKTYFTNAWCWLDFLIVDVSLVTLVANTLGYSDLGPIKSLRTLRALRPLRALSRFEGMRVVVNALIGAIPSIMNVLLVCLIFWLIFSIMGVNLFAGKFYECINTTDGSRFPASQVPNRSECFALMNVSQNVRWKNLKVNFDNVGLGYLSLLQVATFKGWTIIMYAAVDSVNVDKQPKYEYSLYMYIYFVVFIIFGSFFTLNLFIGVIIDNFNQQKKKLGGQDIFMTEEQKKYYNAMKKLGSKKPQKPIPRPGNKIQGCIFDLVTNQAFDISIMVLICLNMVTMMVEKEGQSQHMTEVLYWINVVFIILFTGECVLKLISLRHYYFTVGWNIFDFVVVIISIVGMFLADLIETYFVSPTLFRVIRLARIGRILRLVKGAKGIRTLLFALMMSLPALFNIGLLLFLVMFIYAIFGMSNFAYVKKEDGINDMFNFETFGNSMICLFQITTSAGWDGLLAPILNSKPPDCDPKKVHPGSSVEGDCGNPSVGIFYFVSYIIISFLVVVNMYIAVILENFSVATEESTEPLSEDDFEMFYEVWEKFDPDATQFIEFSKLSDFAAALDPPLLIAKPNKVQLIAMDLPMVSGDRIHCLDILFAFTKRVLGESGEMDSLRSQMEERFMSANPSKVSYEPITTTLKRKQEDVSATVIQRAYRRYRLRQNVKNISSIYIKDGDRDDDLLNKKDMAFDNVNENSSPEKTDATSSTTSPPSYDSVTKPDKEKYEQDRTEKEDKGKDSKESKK
Chain of Pgp (P08183 whole entry): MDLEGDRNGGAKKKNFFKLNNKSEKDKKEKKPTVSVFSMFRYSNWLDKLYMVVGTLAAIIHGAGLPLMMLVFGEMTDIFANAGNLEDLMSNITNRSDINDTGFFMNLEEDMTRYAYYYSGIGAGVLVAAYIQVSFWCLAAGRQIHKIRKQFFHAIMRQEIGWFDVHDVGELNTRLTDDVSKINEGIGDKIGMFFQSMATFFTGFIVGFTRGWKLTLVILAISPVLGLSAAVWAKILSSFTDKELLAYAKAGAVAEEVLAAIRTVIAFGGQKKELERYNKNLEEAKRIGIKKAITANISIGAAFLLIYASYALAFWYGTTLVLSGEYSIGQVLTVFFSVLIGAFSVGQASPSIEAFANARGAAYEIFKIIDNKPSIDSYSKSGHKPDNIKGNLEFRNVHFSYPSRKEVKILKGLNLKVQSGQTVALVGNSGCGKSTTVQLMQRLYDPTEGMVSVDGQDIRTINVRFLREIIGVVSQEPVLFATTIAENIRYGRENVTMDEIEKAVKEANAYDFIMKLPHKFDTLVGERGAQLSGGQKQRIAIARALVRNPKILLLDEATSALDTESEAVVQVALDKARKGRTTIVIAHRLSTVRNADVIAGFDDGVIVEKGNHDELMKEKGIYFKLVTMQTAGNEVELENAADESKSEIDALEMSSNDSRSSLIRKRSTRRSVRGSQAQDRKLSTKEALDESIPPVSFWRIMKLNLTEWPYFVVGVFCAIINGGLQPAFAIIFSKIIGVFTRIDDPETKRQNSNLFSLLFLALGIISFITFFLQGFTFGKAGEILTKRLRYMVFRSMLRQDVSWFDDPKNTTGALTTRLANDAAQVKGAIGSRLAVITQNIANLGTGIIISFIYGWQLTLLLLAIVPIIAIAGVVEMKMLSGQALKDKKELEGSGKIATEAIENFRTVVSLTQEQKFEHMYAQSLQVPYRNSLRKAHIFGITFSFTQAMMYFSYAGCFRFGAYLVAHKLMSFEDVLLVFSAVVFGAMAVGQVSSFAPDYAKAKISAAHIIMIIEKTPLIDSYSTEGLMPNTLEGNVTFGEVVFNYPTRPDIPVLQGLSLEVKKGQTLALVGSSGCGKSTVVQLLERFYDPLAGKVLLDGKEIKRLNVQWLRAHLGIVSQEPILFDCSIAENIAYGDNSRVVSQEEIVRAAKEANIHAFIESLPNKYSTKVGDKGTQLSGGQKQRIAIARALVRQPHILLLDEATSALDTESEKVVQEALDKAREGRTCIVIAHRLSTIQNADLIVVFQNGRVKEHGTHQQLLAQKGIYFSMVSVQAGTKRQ
T2 sequence (P35499 whole entry): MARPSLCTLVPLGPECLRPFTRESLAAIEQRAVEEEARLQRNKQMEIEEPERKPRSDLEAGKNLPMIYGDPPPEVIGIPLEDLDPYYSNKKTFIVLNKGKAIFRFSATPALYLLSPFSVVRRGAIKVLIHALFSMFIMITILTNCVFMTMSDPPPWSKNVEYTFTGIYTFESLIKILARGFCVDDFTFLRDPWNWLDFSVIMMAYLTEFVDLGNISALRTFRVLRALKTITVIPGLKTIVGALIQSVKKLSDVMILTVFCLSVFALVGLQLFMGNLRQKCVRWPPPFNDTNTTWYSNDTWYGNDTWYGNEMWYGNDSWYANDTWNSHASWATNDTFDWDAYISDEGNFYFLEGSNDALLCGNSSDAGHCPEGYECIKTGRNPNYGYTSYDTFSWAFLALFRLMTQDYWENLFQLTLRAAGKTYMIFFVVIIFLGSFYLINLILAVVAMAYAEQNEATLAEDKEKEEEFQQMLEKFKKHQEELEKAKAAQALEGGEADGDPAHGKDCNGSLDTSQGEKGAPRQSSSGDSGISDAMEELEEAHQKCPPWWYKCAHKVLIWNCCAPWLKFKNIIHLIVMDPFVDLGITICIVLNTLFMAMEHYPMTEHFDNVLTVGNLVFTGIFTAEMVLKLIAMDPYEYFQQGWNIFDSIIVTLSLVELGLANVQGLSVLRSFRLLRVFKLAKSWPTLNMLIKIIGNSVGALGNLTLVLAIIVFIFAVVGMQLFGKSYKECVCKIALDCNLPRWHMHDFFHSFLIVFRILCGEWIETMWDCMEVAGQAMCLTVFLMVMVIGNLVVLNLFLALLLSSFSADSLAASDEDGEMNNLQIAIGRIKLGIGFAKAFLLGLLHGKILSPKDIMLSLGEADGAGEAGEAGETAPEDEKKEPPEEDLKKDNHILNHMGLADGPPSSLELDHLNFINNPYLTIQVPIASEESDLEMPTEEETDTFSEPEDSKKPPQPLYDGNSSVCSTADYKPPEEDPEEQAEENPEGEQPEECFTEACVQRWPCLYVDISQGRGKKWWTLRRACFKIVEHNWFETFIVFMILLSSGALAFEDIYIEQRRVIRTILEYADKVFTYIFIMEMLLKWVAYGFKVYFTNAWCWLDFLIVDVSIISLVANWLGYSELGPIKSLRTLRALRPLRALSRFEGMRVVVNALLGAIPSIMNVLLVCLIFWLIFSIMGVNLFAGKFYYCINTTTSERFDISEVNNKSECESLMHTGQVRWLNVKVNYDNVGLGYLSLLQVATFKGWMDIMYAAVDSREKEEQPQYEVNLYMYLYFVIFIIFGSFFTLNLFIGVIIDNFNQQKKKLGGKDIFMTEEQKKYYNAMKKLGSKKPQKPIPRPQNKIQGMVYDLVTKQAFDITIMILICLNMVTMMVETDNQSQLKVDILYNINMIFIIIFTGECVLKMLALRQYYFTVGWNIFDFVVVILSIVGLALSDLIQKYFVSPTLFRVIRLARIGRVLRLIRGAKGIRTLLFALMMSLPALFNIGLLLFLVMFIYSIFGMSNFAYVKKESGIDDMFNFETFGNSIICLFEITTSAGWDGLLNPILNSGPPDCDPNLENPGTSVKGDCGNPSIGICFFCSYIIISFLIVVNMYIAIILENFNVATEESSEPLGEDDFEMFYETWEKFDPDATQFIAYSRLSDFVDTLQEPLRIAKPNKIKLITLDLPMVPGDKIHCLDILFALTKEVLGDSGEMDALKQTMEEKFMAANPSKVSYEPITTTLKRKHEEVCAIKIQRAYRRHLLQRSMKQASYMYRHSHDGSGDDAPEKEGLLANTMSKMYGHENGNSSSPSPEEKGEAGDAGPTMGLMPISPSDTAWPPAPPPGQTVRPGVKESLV

Structure (SMILES)	IC50 [1] [µM]	concentration at 30 min [2, 9] [µM]	concentration at 30 min [2, 10] [µM]	efflux ratio [3]	percent decrease in the magnitude of the phrenic nerve signal [4]	IC50 [5] [µM]	IC50 [6] [µM]	IC50 [7] [µM]	IC50 [8] [µM]	concentration at 15 min [2, 9] [µM]	concentration at 15 min [2, 10] [µM]	Total [plasma] ([2]; 30 mg/kg, 22–30 min) [µM]	Unbound [plasma] ([2]; 30 mg/kg, 22–30 min) [µM]	concentration at 15 min [2, 11] [µM]	concentration at 15 min [2, 12] [µM]	concentration at 30 min [2, 11] [µM]	concentration at 30 min [2, 12] [µM]	fold more potent at inhibiting NaV1.6 channels [1]	inhibition at 0.041 µM ([7]; at 41 nM) [%]
O=S(=O)(Nc1nccs1)c1cc(Cl)c(NCCCCNC[C@H]2CCCN2)cc1F [SSCI-1]	> 30	236 ± 110	15.8 ± 7.37	~1.1	did not show any decrease	0.065	> 30	19	> 30	–	–	–	–	–	–	–	–	–	–
C[C@H](c1cccc2c1CNCC2)n1c(=O)oc2cc(S(=O)(=O)Nc3ncns3)ccc21 [SSCI-3]	1.11	–	–	~1.03	74.2%	1	> 30	8.1	> 30	32.1 ± 3.4	3.78 ± 0.4	43.549 ± 3.116	5.138 ± 0.36	–	–	–	–	–	–
N#Cc1cc(S(=O)(=O)Nc2cscn2)ccc1Oc1ccc(Cl)cc1-c1ccnn1C1CNC1 [SSCI-5]	4.61	–	–	< 999	76.1%	2.1	> 30	7.4	> 30	–	–	–	–	82.7 ± 15.2	10.6 ± 1.94	86.2 ± 42.1	11 ± 5.39	–	–
COc1ccc(CCC(c2cccc3c2CNCC3)n2c(=O)oc3cc(S(=O)(=O)Nc4ncns4)c(F)cc32)cc1 (stereo not shown) [SSCI-6]	0.023	–	–	–	–	0.29	–	> 0.041	> 30	–	–	–	–	–	–	–	–	approximately 10 fold	45
